The test system of one series is fibrin. As to the kind of experiment: Incorporation of the radiolabeled compound into a fibrin clot (human fibrinogen, Factor XIII, human thrombin). In kind it is biochemical. To be noted: incubated about three and a half hours at about 37° C.; clot washed three times. Here is the method:
The radiolabeled amine compound N-(5-aminopentyl)-5-iodonaphthalenesulfonamide,I-125 is tested for its ability to be incorporated into fibrin.
The following solutions are mixed in a polystyrene test tube; (a) about 1 ml of a solution containing about 5 mg/ml of human fibrinogen (about 1.5×10^-5 M) and a tris-HCl buffer in a concentration of about 5×10^-3 M, the solution having a pH of about 7.4, (b) about 0.1 ml of a saline solution containing about 4×10^-2 units of blood Factor XIII, (c) about 0.1 ml of a 0.05 M cysteine solution having a pH of about 7.4, and (d) about 0.1 ml of a solution containing the N-(5-aminopentyl)-5-iodonaphthalenesulfonamide,I-125 compound in a concentration of about 2.3×10^-5 mmole and a radioactivity of about 1 μCi. Thereafter, about 0.2 ml of solution of about 0.05 M tris buffer and about 0.025 M CaCl2 which contains about 10 NIH units of human thrombin and has a pH of about 7.4 is added.
The resultant mixture is then incubated for about three and a half hours at about 37° C. whereupon a fibrin clot is formed. […] The radioactivity of the solution and the clot are then measured in a suitable detection apparatus. From these radioactivity measurements, it is determined that about 15% of the initial radioactivity is incorporated into the fibrin clot.

The nature of series [1]: Stability towards deiodination and tissue incorporation after intravenous administration to rabbits. Format: in vivo, New Zealand white rabbits. To be noted: rabbit. As for the experimental part:
The radiolabeled amine compound N-(5-aminopentyl)-5-iodonaphthalenesulfonamide,I-`125 is tested for stability towards deiodination and for tissue incorporation by administering the compound to rabbits.
Two test solutions each of about 0.5 mCi of the above compound (spec. activity of about 1 mCi/mg) in about 1.45 ml of a physiological saline solution are prepared. A test solution is then intravenously administered to two New Zealand white rabbits, each weighing about 3 kg.
A blood sample is then taken from each rabbit at 12, 24, 36 and 72 hour periods after administration. The radioactivity of about 1 g of blood from samples for each time period is then measured. The measurements indicate that the radioactivity in the blood decreases slowly and that at about 72 hours after administration, about 20% of the initial radioactivity is still present in the blood. Due to the relatively slow disappearance of the subject compound from the bloodstream, the compound is therefore available in the bloodstream for a prolonged period of time which thereby increases its suitability to become incorporated into an occurring thrombus.
At the end of the 72 hour period, the rabbits are sacrificed and thereafter, the thyroid, liver, kidneys, lung, stomach wall, parotid glands, brains, muscle and bone tissue are removed and portions are measured for radioactivity. The thyroid contains only about 0.05% of the injected dose per gram which thereby indicates the stability of the subject compound towards deiodination. […] The liver contains about 0.04% and the gall bladder contains about 0.1% of the injected dose while the kidneys and the urine both contain about 0.3% of the dose.

The subject of a further series is blood clot factor XIII. As to the kind of experiment: In vitro incorporation of the radiolabeled compound in casein by blood clot factor XIII (Km, Lineweaver-Burke plot). Format: biochemical. Here is the method: Incorporation of the radiolabeled compound produced in Example I in fibrin by means of the blood clot factor XIII was investigated in vitro in the following manner:
To about 400 ul of a physiolgical salt solution containing 10 units of Factor XIII per ml, the following solutions were successively added; (a) about 500 ul of 0.5 molar solution of cystein in a buffer solution of tris(hydroxymethyl)aminomethane having a pH of 7.4, (b) about 100 ul of a buffer solution of tris (hydroxymethyl) aminomethane having a pH of about 7.4 and in which about 250 units of thrombine per ml had been dissolved, (c) about 1200 ul of a buffer solution of tris(hydroxymethyl) aminomethane, (d) about 50 ul of 0.4 molar solution of calcium chloride in water, and (e) about 200 ul of 5% solution of casein in water. […]
After incubation of the test solutions at about 37° C. for about 15 minutes, the reaction was discontinued by the addition of about 200 ul of a 1 molar solution of monoidoacetic acid which has been brought to a pH of about 7.4 by a sodium hydroxide solution. […] The radioactivity in the high-molecular fraction was then measured to determine if the radiolabeled sulfonamide compound had indeed been incorporated into the casein. […]

Turning to `NCCCCCNS(=O)(=O)c1cccc2c([125I])cccc12` [N-(5-aminopentyl)-5-iodonaphthalenesulfonamide,I-125], the “initial radioactivity incorporated into the fibrin clot” value in the series with fibrin is on record as “about 15%”. Moreover, in series [1] (72 hours), the “radioactivity in gall bladder” value is on record as “about 0.1 % of the injected dose”, the radioactivity in kidneys entry is given as “about 0.3 % of the dose”, the radioactivity in liver result is “about 0.04 % of the injected dose” and the radioactivity in urine entry was “about 0.3 % of the dose”. Further, the “initial radioactivity still present in the blood” value in series [1] (about 0.5 mCi, about 72 hours after administration) is “about 20%”. Further, in series [1] (thyroid, 72 hours, indicates stability towards deiodination, read-out: radioactivity in thyroid), the tissue uptake at 72 h is roughly 0.05 %ID/g.
Turning to `NCCCCCNS(=O)(=O)c1cccc2c([131I])cccc12` [N-(5-aminopentyl)-5-iodonaphthalene-1-sulfonamide-I-131], the “incorporation in casein (in words)” value with blood clot factor XIII (casein) is recorded as “amply sufficient to be incorporated efficiently in casein”. Also, the Km (usually the concentration of substrate that gives half-maximal velocity) in the series with blood clot factor XIII (casein as acceptor, 37° C., 15 minutes, pH 7.4, Lineweaver-Burke plot from measured radioactivity) stood at 250 µM.

The record behind these values is patent publication US4406875A, “Radiolabeled amine compounds and their use” (Byk-Mallinckrodt CIL B.V., priority 1979, dated 1983).
